The text below walks through data of patent publication US20220175882A1, “BETA-CASEIN A2 AND REDUCING OR […] OF LACTOSE INTOLERANCE” (THE A2 MILK COMPANY LIMITED, priority 2013, published 2022).

One assay relates to SH-SY5Y cells. As to the kind of experiment: DNA methylation by MBD-seq (differentially methylated transcripts). It counts as cell-based, human. Conditions: cells treated 4 hours with 1 μM BCM-7; FDR<0.1, p<0.05. Here is the method:
Global DNA methylation levels induced by BCM-7 were investigated using methyl-CpG binding domain (MBD) protein-enriched genome sequencing (MBD-seq) as described previously (Trivedi M., et al., Mol. Pharm. 2014), whereas mRNA translation microarray data was obtained using Agilent V3 microarray chip, from non-treated control SH-SY5Y cells and cells treated for 4 hours with 1 μM BCM-7.
Genomic DNA was extracted from samples with the Easy DNA kit (Invitrogen K1800-01) using the appropriate protocol for cell lines. Fragmentation was performed on Covaris S2 with the following settings: duty cycle 10%, intensity 5, 200 cycles per burst during 200 sec. Fragments were obtained having an average length of 200 bp. The power mode is frequency sweeping, temperature 6-8° C., water level 12. A maximum of 5 μg was loaded in 130 μl Tris-EDTA in a microtube with AFA intensifier. For samples with less DNA input (down to 500 ng) the DNA was diluted 1:5 in TrisEDTA. DNA with an input from 5-3 μg was analysed on the Agilent 2100 using a DNA 1000 chip. DNA with an input lower than 3 μg was concentrated in a rotary evaporator to 25 μl and the fragment distribution was checked on a high sensitivity DNA chip. Methylated DNA was captured using the MethylCap kit (Diagenode, Belgium). The yield was typically between 0.5 and 8 ng of total captured DNA. Fragments were subsequently sequenced using an Illumina Genome Analyzer II. The concentrations of fragmented and captured DNA were determined on a Fluostar Optima plate reader with the Quant-iT PicoGreen dsDNA Assay Kit (Invitrogen P7589) at 480/520 nm.
To prepare the DNA library, a DNA Sample Prep Master Mix Set 1 (NEB E6040) was used in combination with a Multiplexing Sample Preparation Oligo Kit (96 samples, Illumina PE-400-1001). The entire fragmented DNA was utilised and followed the NEB protocols, using the multiplexing sequencing adapters provided in the Multiplexing Sample Preparation Oligo Kit. Size selection of the library was carried out on a 2% agarose gel (Low Range Ultra Agarose Biorad 161-3107). […] A fragment of 300 bps +/−50 bps was excised and eluted on a Qiagen Gel Extraction Kit column (Qiagen 28704) and eluted in 23 μl EB.
The Illumina library amplification index protocol was used with the following alterations: 22 μl DNA was used and performed 21 cycles run. The sample was purified on a Qiaquick PCR Purification column (Qiagen 28101) and eluted in 50 μl EB, 1:5 diluted, and concentrated in a rotary evaporator to 10 μl. 1 μl was applied to a Agilent 2100 HS DNA chip and the concentration was determined by smear analysis on the Agilent 2100. The samples were diluted to 10 nM. After denaturation with NaOH the samples were diluted to […]. The Paired-End flow cell was prepared according to the Cluster Station User Guide. […]

In assay [1] the test system is Caco-2 Gut epithelial cells. Conditions: read-out: IC50, inhibition of cysteine uptake; GI epithelial cells (FIG. 4). As to the method: (§1) Pre-treatment in cells was performed for different time points for 30 min, 4, 24 and 48 h as described previously (Trivedi M., et al.; Mol. Pharm., 2014). SH-SY5Y human neuronal cells and Caco-2 Gut epithelial cells were plated in six-well plates and were pretreated with drugs and incubated for various times prior to measuring uptake. Media were aspirated and cells were washed with 600 μL of HBSS at 37° C. Non-radioactive HBSS was aspirated, replaced with 600 μL of 37° C. HBSS containing [^35S]-cysteine (1 μCl/1 mL), 10 μM unlabelled cysteine and 100 μM DTT, and the cells were incubated for 5 min. The [^35S]-cysteine/HBSS mixture was aspirated and treatment was terminated by two washes with ice-cold HBSS. Cells were then lysed with 600 μL of dH2O, scraped, collected in 1.5 mL microcentrifuge tubes, and sonicated for 10 s. 100 μL of each sample was aliquoted for protein assay. 200 μL of each sample (in triplicate) was aliquoted into scintillation vials with 4 mL of scintillation fluid, vortexed, and counted for radioactivity (normalised against protein content). […] The symbol * used in these figures indicates a statistically significant difference (p<0.05) compared against the untreated control, and the symbol # indicates a statistically significant difference (p<0.005) compared against the untreated control.

Assay [2] deals with SH-SY5Y human neuronal cells. As to the method: as §1
A further assay relates to SH-SY5Y neuronal cells. As to the kind of experiment: Intracellular cysteine, GSH and SAM/SAH levels by HPLC with electrochemical detection. It counts as cell-based, human. Here is the method: Media was aspirated and the cells were washed twice with 1 mL of ice cold HBSS. HBSS was aspirated and 0.6 mL ice cold dH2O was added to the cells. The cells were scraped from the flask/dish and suspended in dH2O. […] The remaining lysate was added to a microcentrifuge tube and an equal volume of 0.4 N perchloric acid was added, followed by incubation on ice for 5 min. Samples were centrifuged at 5,000×g and the supernatant transferred to new microcentrifuge tubes.
The separation of redox and methylation pathway metabolites was accomplished using an Agilent Eclipse XDB-C8 analytical column (3×150 mm; 3.5 μm) and an Agilent Eclipse XDB-C8 (4.6×12.5 mm; 5 μm) guard column. […] The flow rate was initially set at 0.6 mL/min and a step gradient was used: 0-9 min 0% B, 9-19 min 50% B, 19-30 min 50% B. The column was then equilibrated with 5% B for 12 min prior to the next run. Temperature was maintained at 27° C. […] Sample concentrations were determined from the peak areas of metabolites using standard calibration curves and ESA-supplied HPLC software. Sample concentrations were normalised against protein content. In some cases samples were diluted in mobile phase as needed or up to 50 μl of sample was injected to assure that thiol levels were within the range of the standard curve.

Molecules are shown by their SMILES. “Also recorded” adds a separate entry of the source. Where a SMILES comes first, the peptide text is derived from it.

What is called IC50 is the point on the concentration scale where inhibition reaches its midpoint.

On to `CC[C@H](C)[C@H](NC(=O)[C@@H]1CCCN1C(=O)CNC(=O)[C@@H]1CCCN1C(=O)[C@H](Cc1ccccc1)NC(=O)[C@@H]1CCCN1C(=O)[C@@H](N)Cc1ccc(O)cc1)C(=O)O` [BCM-7, beta-casomorphin-7] (H-YPFPGPI-OH; N-terminus and C-terminus assumed), for which, in the assay with SH-SY5Y cells, the “Differentially methylated transcripts: Galactose metabolism” value is “GALK2 and GALR2 and GALT and GALR1 and CHST1 and NPY and PYY and GKN1”; the “Differentially methylated transcripts: Gastric Acid secretion” value was “SCTR and OXTR and VIPR1 and SST and PPARGC1A and PGC”; the “Differentially methylated transcripts: Lactose Biosynthetic pathway” value was “LGALS12; also recorded: B4GALT1; also recorded: B4GALT2”; the “Differentially methylated transcripts: Lactose metabolism” value is recorded as “LCT”. Besides, the IC50 in assay [1] amounted to 15.9 nM. Also, the “Receptor mediating the effect on cysteine uptake” value in assay [2] (in presence of CTAP (selective μ-antagonist) or naltrindole (delta antagonist), FIG. 6) is “μ-opioid receptor mediated”. In assay [2] (neuronal cells and GI epithelial cells (FIG. 5), 30 min to 48 h exposure), the “Time course of inhibition of cysteine uptake” value was “fully developed after 30 minutes and was sustained through 48 hours”. Besides, the IC50 in assay [2] (read-out: IC50, inhibition of cysteine uptake, neuronal cells (FIG. 4)) was 1.31 nM. For the same molecule, the “Cysteine and glutathione (GSH) levels” value with SH-SY5Y neuronal cells (30 min, 4 h, 24 h) is given as “time-dependent decreases”. For the same molecule, the “Methylation capacity (SAM/SAH ratio)” value with SH-SY5Y neuronal cells (different time points (FIG. 7)) was “affected”.
